In patent US10927111B2, “Inhibitors of RAF kinases” (Kinnate Biopharma Inc., priority 2019, dated 2021):
Read-outs that look alike come from different tables or passages of the source.

Molecular target: human RAF1 (Homo sapiens (Human), UniProt P04049)
Test: Protein kinase assay (radiometric 33P-ATP, MEK1 (K97R) substrate)
Type: biochemical
Conditions: read-out: RAF-1 IC50
Method: Protein kinase assay: Assay platform was used to measure kinase/inhibitor interactions as described previously (Anastassiadis et al., 2011). In brief, for each reaction, kinase and substrate were mixed in a buffer containing 20 mM HEPES (pH 7.5), 10 mM MgCl2, 1 mM EGTA, 0.02% Brij35, 0.02 mg/mL BSA, 0.1 mM Na3VO4, 2 mM DTT, and 1% DMSO. All compounds were solubilized in DMSO. Compounds were then added to each reaction mixture via acoustic dispense using an ECHO 550 nanoliter dispenser. For human RAF1 testing, human MEK1 (K97R) was used as a substrate at a concentration of 3 micromolar, with a final ATP concentration of 10 micromolar. For human BRAF testing, human MEK1 (K97R) was used as a substrate at 1 micromolar concentration, with a final ATP concentration of 25 micromolar. […] After a 20-min incubation, ATP (Sigma-Aldrich, St. Louis, Mo. 63178) and [g33P] ATP (specific activity 10 microCi/microliter) purchased at PerkinElmer (Boston, Mass., 02118 Cat #BLU 003H250UC) were added at a final total concentration of 10 mM. Reactions were carried out at room temperature for 2 hr and spotted onto P81 ionexchange cellulose chromatography paper (Reaction Biology). Filter paper was washed in 0.75% phosphoric acid to remove unincorporated ATP. The percent remaining kinase activity relative to a vehicle-containing (DMSO) kinase reaction was calculated for each kinase/inhibitor pair. IC50 values were calculated using Prism 5 (GraphPad).

[1] = human MEK1 (K97R) substrate 3 micromolar, ATP 10 micromolar, 10-dose IC50 mode

human RAF1, sequence (P04049 whole entry): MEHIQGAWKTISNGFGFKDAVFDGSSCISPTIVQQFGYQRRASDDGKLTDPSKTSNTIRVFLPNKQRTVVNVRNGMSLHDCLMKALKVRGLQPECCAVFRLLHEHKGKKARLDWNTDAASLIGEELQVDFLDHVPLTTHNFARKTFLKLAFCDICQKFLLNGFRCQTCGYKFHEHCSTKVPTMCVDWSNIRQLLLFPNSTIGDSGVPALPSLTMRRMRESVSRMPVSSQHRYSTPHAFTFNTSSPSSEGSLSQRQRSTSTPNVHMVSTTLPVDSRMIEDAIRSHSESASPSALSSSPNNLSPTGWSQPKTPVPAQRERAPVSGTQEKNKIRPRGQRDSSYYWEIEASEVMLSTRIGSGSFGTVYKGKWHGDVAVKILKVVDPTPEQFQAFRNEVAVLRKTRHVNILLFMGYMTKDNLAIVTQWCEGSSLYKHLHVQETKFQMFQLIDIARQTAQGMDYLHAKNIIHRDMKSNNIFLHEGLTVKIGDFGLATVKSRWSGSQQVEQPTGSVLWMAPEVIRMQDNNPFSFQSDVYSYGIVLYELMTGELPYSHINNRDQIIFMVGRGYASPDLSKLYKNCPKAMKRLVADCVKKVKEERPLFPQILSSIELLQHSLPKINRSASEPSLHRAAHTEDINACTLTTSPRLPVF

| IC50 [1] | IC50 | Structure (SMILES) |
| --- | --- | --- |
| ≤ 10 nM | – | CNc1ncc2cc(-c3cc(NC(=O)N4CC=C(C(F)(F)F)C4)ccc3C)c(C)nc2n1 [Example 16, N-(4-methyl-3-(7-methyl-2-(methylamino)pyrido[2,3-d]pyrimidin-6-yl)phenyl)-3-(trifluoromethyl)-2,5-dihydro-1H-pyrrole-1-carboxamide] |
| ≤ 10 nM | – | CNc1ncc2cc(-c3cc(NC(=O)N4CC[C@H](CC(F)(F)F)C4)c(F)cc3C)c(C)nc2n1 [Example 17, (R)-N-(2-fluoro-4-methyl-5-(7-methyl-2-(methylamino)pyrido[2,3-d]pyrimidin-6-yl)phenyl)-3-(2,2,2-trifluoroethyl)pyrrolidine-1-carboxamide] |
| – | ≤ 10 nM | CNc1ncc2cc(-c3cc(NC(=O)N4CC[C@@H](CC(F)(F)F)C4)c(F)cc3C)c(C)nc2n1 [Example 18, (S)-N-(2-fluoro-4-methyl-5-(7-methyl-2-(methylamino)pyrido[2,3-d]pyrimidin-6-yl)phenyl)-3-(2,2,2-trifluoroethyl)pyrrolidine-1-carboxamide] |
| ≤ 10 nM | – | CNc1ncc2cc(-c3cc(NC(=O)N4CC[C@H](CC(F)(F)F)C4)ccc3C)c(C)nc2n1 [Example 19, (R)-N-(4-methyl-3-(7-methyl-2-(methylamino)pyrido[2,3-d]pyrimidin-6-yl)phenyl)-3-(2,2,2-trifluoroethyl)pyrrolidine-1-carboxamide] |
| ≤ 10 nM | – | CNc1ncc2cc(-c3cc(NC(=O)N4CC[C@@H](CC(F)(F)F)C4)ccc3C)c(C)nc2n1 [Example 20, (S)-N-(4-methyl-3-(7-methyl-2-(methylamino)pyrido[2,3-d]pyrimidin-6-yl)phenyl)-3-(2,2,2-trifluoroethyl)pyrrolidine-1-carboxamide] |
| ≤ 10 nM | – | CNc1ncc2cc(-c3cc(NC(=O)N4CCC(C(C)(C)C)C4)c(F)cc3C)c(C)nc2n1 (stereo not shown) [Example 21, 3-(tert-butyl)-N-(2-fluoro-4-methyl-5-(7-methyl-2-(methylamino)pyrido[2,3-d]pyrimidin-6-yl)phenyl)pyrrolidine-1-carboxamide] |
| – | ≤ 10 nM | CNc1ncc2cc(-c3cc(NC(=O)N4CCO[C@H](C(C)(C)C)C4)c(F)cc3C)c(C)nc2n1 [Example 22, (R)-2-(tert-butyl)-N-(2-fluoro-4-methyl-5-(7-methyl-2-(methylamino)pyrido[2,3-d]pyrimidin-6-yl)phenyl)morpholine-4-carboxamide] |
| – | ≤ 10 nM | CNc1ncc2cc(-c3cc(NC(=O)N4CCO[C@@H](C(C)(C)C)C4)c(F)cc3C)c(C)nc2n1 [Example 23, (S)-2-(tert-butyl)-N-(2-fluoro-4-methyl-5-(7-methyl-2-(methylamino)pyrido[2,3-d]pyrimidin-6-yl)phenyl)morpholine-4-carboxamide] |
| ≤ 10 nM | – | CNc1ncc2cc(-c3cc(NC(=O)N4CCn5cnc(C(F)(F)F)c5C4)ccc3C)c(C)nc2n1 [Example 24, N-(4-methyl-3-(7-methyl-2-(methylamino)pyrido[2,3-d]pyrimidin-6-yl)phenyl)-1-(trifluoromethyl)-5,6-dihydroimidazo[l,5-a]pyrazine-7(8H)-carboxamide] |
| – | ≤ 10 nM | CNc1ncc2cc(-c3cc(NC(=O)N4CCO[C@H](CC(F)(F)F)C4)c(F)cc3C)c(C)nc2n1 [Example 25, (R)-N-(2-fluoro-4-methyl-5-(7-methyl-2-(methylamino)pyrido[2,3-d]pyrimidin-6-yl)phenyl)-2-(2,2,2-trifluoroethyl)morpholine-4-carboxamide] |
| – | ≤ 10 nM | CNc1ncc2cc(-c3cc(NC(=O)N4CCO[C@@H](CC(F)(F)F)C4)c(F)cc3C)c(C)nc2n1 [Example 26, (S)-N-(2-fluoro-4-methyl-5-(7-methyl-2-(methylamino)pyrido[2,3-d]pyrimidin-6-yl)phenyl)-2-(2,2,2-trifluoroethyl)morpholine-4-carboxamide] |
| ≤ 10 nM | – | CNc1ncc2cc(-c3cc(NC(=O)c4cc(C(F)(F)F)ccn4)ccc3C)c(C)nc2n1 [Example 27] |
| ≤ 10 nM | – | CNc1ncc2cc(-c3cc(NC(=O)c4cccc(C(F)(F)F)c4)ccc3C)c(C)nc2n1 [Example 29, N-(4-methyl-3-(7-methyl-2-(methylamino)pyrido[2,3-d]pyrimidin-6-yl)phenyl)-3-(trifluoromethyl)benzamide] |
| ≤ 10 nM | – | CNc1ncc2cc(-c3cc(NC(=O)N4CC[C@H](CC(F)(F)F)C4)c(F)cc3C)cnc2n1 [Example 30, (R)-N-(2-fluoro-4-methyl-5-(2-(methylamino)pyrido[2,3-d]pyrimidin-6-yl)phenyl)-3-(2,2,2-trifluoroethyl)pyrrolidine-1-carboxamide] |
| ≤ 10 nM | – | CNc1ncc2cc(-c3cc(NC(=O)N4CC[C@@H](CC(F)(F)F)C4)c(F)cc3C)cnc2n1 [Example 31, (S)-N-(2-fluoro-4-methyl-5-(2-(methylamino)pyrido[2,3-d]pyrimidin-6-yl)phenyl)-3-(2,2,2-trifluoroethyl)pyrrolidine-1-carboxamide] |
| ≤ 10 nM | – | CNc1ncc2cc(-c3cc(NC(=O)c4cncc(C(F)(F)F)c4)ccc3C)c(C)nc2n1 [Example 32, N-(4-methyl-3-(7-methyl-2-(methylamino)pyrido[2,3-d]pyrimidin-6-yl)phenyl)-5-(trifluoromethyl)nicotinamide] |
| ≤ 10 nM | – | CNc1ncc2cc(-c3cc(NC(=O)c4ccnc(C(F)(F)F)c4Cl)ccc3C)c(C)nc2n1 [Example 33, 3-chloro-N-(4-methyl-3-(7-methyl-2-(methylamino)pyrido[2,3-d]pyrimidin-6-yl)phenyl)-2-(trifluoromethyl)isonicotinamide] |
| ≤ 10 nM | – | CNc1ncc2cc(-c3cc(NC(=O)c4cc(C)nc(C(F)(F)F)c4)ccc3C)c(C)nc2n1 [Example 34, 2-methyl-N-(4-methyl-3-(7-methyl-2-(methylamino)pyrido[2,3-d]pyrimidin-6-yl)phenyl)-6-(trifluoromethyl)isonicotinamide] |
| ≤ 10 nM | – | CCNc1ncc2cc(-c3cc(NC(=O)c4ccnc(C(F)(F)F)c4)ccc3C)c(C)nc2n1 [Example 35, N-(3-(2-(ethylamino)-7-methylpyrido[2,3-d]pyrimidin-6-yl)-4-methylphenyl)-2-(trifluoromethyl)isonicotinamide] |
| ≤ 10 nM | – | CCc1nc2nc(NC)ncc2cc1-c1cc(NC(=O)c2ccnc(C(F)(F)F)c2)ccc1C [Example 36, N-(3-(7-ethyl-2-(methylamino)pyrido[2,3-d]pyrimidin-6-yl)-4-methylphenyl)-2-(trifluoromethyl)isonicotinamide] |
| ≤ 10 nM | – | Cc1ccc(NC(=O)c2ccnc(C(F)(F)F)c2)cc1-c1cc2cnc(NC3CC3)nc2nc1C [Example 37, N-(3-(2-(cyclopropylamino)-7-methylpyrido[2,3-d]pyrimidin-6-yl)-4-methylphenyl)-2-(trifluoromethyl)isonicotinamide] |
| ≤ 10 nM | – | Cc1ccc(NC(=O)c2ccnc(C(F)(F)F)c2)cc1-c1cc2cnc(NCCN3CCOCC3)nc2nc1C [Example 38, N-(4-methyl-3-(7-methyl-2-((2-morpholinoethyl)amino)pyrido[2,3-d]pyrimidin-6-yl)phenyl)-2-(trifluoromethyl)isonicotinamide] |
| ≤ 10 nM | – | Cc1ccc(NC(=O)c2ccnc(C(F)(F)F)c2)cc1-c1cc2cnc(NCCN3CCCC3)nc2nc1C [Example 39, N-(4-methyl-3-(7-methyl-2-((2-(pyrrolidin-1-yl)ethyl)amino)pyrido[2,3-d]pyrimidin-6-yl)phenyl)-2-(trifluoromethyl)isonicotinamide] |
| ≤ 10 nM | – | Cc1ccc(NC(=O)c2ccnc(C(F)(F)F)c2)cc1-c1cc2cnc(NCCO)nc2nc1C [Example 40, N-(3-(2-((2-hydroxyethyl)amino)-7-methylpyrido[2,3-d]pyrimidin-6-yl)-4-methylphenyl)-2-(trifluoromethyl)isonicotinamide] |
| ≤ 10 nM | – | CNc1ncc2cc(-c3cc(NC(=O)c4ccnc(C(F)(F)F)c4C)ccc3C)c(C)nc2n1 [Example 41, 3-methyl-N-(4-methyl-3-(7-methyl-2-(methylamino)pyrido[2,3-d]pyrimidin-6-yl)phenyl)-2-(trifluoromethyl)isonicotinamide] |
| ≤ 10 nM | – | Cc1ccc(NC(=O)c2ccnc(C(F)(F)F)c2)cc1-c1cc2cnc(NC3CCN(C)CC3)nc2nc1C [Example 42, N-(4-methyl-3-(7-methyl-2-((1-methylpiperidin-4-yl)amino)pyrido[2,3-d]pyrimidin-6-yl)phenyl)-2-(trifluoromethyl)isonicotinamide] |
| – | ≤ 10 nM | [2H]C([2H])([2H])Nc1ncc2cc(-c3cc(NC(=O)c4ccnc(C(F)(F)F)c4)ccc3C)c(C)nc2n1 [Example 43, N-(4-methyl-3-(7-methyl-2-((trideuteromethyl)amino)pyrido[2,3-d]pyrimidin-6-yl)phenyl)-2-(trifluoromethyl)isonicotinamide] |
| ≤ 10 nM | – | CNc1ncc2cc(-c3cc(NC(=O)c4cccc(C(F)(F)F)c4)cnc3C)c(C)nc2n1 [Example 44, N-(6-methyl-5-(7-methyl-2-(methylamino)pyrido[2,3-d]pyrimidin-6-yl)pyridin-3-yl)-3-(trifluoromethyl)benzamide] |
